ChEMBL document CHEMBL1154409, “Contribution of the CmeABC efflux pump to macrolide and tetracycline resistance in Campylobacter jejuni” (2007)
Values after ≈ are worked out from the molar mass of the structure shown. Peptide text beside a SMILES is read from it. * marks the point of attachment. βNA = c1ccc2cc(N*)ccc2c1

Tests used:
[1] = tested on: Campylobacter jejuni; assay: Inactivation of CmeABC efflux pump in Campylobacter jejuni 25-19 assessed as change in erythromycin MIC by agar dilution method
[2] = molecular target: T1, CmeA (Campylobacter jejuni) (UniProt Q8RTE5); assay: Inactivation of CmeABC efflux pump in Campylobacter jejuni 25-19 assessed as change in clarithromycin MIC by agar dilution method
T1 sequence (whole entry): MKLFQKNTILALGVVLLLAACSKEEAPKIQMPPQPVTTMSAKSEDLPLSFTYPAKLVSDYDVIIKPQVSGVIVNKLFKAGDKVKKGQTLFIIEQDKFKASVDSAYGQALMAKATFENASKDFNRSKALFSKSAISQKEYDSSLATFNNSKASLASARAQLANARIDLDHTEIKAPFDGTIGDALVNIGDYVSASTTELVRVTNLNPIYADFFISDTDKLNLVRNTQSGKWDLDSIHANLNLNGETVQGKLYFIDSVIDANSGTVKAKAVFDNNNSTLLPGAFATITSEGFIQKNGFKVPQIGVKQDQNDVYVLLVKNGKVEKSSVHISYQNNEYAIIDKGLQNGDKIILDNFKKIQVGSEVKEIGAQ

[3] = tested on: Campylobacter jejuni; assay: Antibacterial activity against Campylobacter jejuni 001B-40 cmeB::kanamycin-resistant mutant by agar dilution method; assay type: functional
[4] = tested on: Campylobacter jejuni; assay: Antibacterial activity against Campylobacter jejuni 001B-22 carrying A2075G mutation in 23S rRNA by agar dilution method; assay type: functional
[5] = tested on: Campylobacter jejuni; assay: Antibacterial activity against Campylobacter jejuni 001B-40 carrying A2075G mutation in 23S rRNA by agar dilution method; assay type: functional
[6] = tested on: Campylobacter jejuni; assay: Antibacterial activity against Campylobacter jejuni UA709 carrying A2074C mutation in 23S rRNA by agar dilution method; assay type: functional
[7] = tested on: Campylobacter jejuni; assay: Antibacterial activity against Campylobacter jejuni UA709 cmeB::kanamycin-resistant mutant by agar dilution method; assay type: functional
[8] = tested on: Campylobacter jejuni; assay: Ratio of MIC for Campylobacter jejuni 001B-40 carrying A2075G mutation in 23S rRNA to MIC for Campylobacter jejuni 001B-40 cmeB::kanamycin-resistant mutant; assay type: functional
[9] = tested on: Campylobacter jejuni; assay: Antibacterial activity against Campylobacter jejuni 001B-22 cmeB::kanamycin-resistant mutant by agar dilution method; assay type: functional
[10] = tested on: Campylobacter jejuni; assay: Ratio of MIC for Campylobacter jejuni 001B-22 carrying A2075G mutation in 23S rRNA to MIC for Campylobacter jejuni 001B-22 cmeB::kanamycin-resistant mutant; assay type: functional
[11] = tested on: Campylobacter jejuni; assay: Antibacterial activity against Campylobacter jejuni 25-19 by agar dilution method; assay type: functional
[12] = tested on: Campylobacter jejuni; assay: Antibacterial activity against Campylobacter jejuni 23-51 cme:: Kanamycin-resistant mutant assessed by agar dilution method; assay type: functional
[13] = tested on: Campylobacter jejuni; assay: Antibacterial activity against Campylobacter jejuni 23-51 assessed as inhibition of CmeABC efflux pump by agar dilution method; assay type: functional
[14] = tested on: Campylobacter jejuni; assay: Antibacterial activity against Campylobacter jejuni 81-176 cmeB: kanamycin-resistant mutant carrying tet(O)+ gene; assay type: functional
[15] = tested on: Escherichia coli; assay: Antibacterial activity against Escherichia coli EW1b containing pDOB47; assay type: functional
[16] = tested on: Campylobacter jejuni; assay: Antibacterial activity against Campylobacter jejuni 15-21 cmeB:: Kanamycin-resistant mutant by agar dilution method; assay type: functional
[17] = tested on: Escherichia coli; assay: Antibacterial activity against wild type Escherichia coli DH5alpha by agar dilution assay; assay type: functional
[18] = tested on: Campylobacter jejuni; assay: Antibacterial activity against Campylobacter jejuni 25-19 cmeB:: Kanamycin-resistant mutant by agar dilution method; assay type: functional
[19] = tested on: Campylobacter jejuni; assay: Antibacterial activity against Campylobacter jejuni 81-176 carrying tet(O)+ gene by agar dilution method; assay type: functional
[20] = tested on: Campylobacter jejuni; assay: Antibacterial activity against Campylobacter jejuni 25-45 cmeB:: Kanamycin-resistant mutant by agar dilution method; assay type: functional
[21] = tested on: Campylobacter jejuni; assay: Antibacterial activity against Campylobacter jejuni 25-45 by agar dilution method; assay type: functional
[22] = tested on: Campylobacter jejuni; assay: Antibacterial activity against Campylobacter jejuni 15-21 by […]; assay type: functional

Row | Compound | fold change (FC) [1] | MIC [3] [µg/mL] | MIC [4] [µg/mL] | MIC [5] [µg/mL] | MIC [6] [µg/mL] | MIC [7] [µg/mL] | MIC [9] [µg/mL] | fold change (FC) [10] | further results
1 | N=C(N)NCCC[C@H](NC(=O)[C@@H](N)Cc1ccccc1)C(=O)Nc1ccc2ccccc2c1 (H-Phe-Arg-βNA) | 3 | – | – | – | – | – | – | – | fold change (FC) [2]: 2
2 | CC[C@H]1OC(=O)[C@H](C)[C@@H](O[C@H]2C[C@@](C)(OC)[C@@H](O)[C@H](C)O2)[C@H](C)[C@@H](O[C@@H]2O[C@H](C)C[C@H](N(C)C)[C@H]2O)[C@](C)(OC)C[C@@H](C)C(=O)[C@H](C)[C@@H](O)[C@]1(C)O [CLARITHROMYCIN] | 2 | 8 (≈ 10.7 µM) | 64 (≈ 85.6 µM) | 265 (≈ 354 µM) | 128 (≈ 171 µM) | 128 (≈ 171 µM) | 4 (≈ 5.35 µM) | 16 | fold change (FC) [8]: >32
3 | CC[C@H]1OC(=O)[C@H](C)[C@@H](O[C@H]2C[C@@](C)(OC)[C@@H](O)[C@H](C)O2)[C@H](C)[C@@H](O[C@@H]2O[C@H](C)C[C@H](N(C)C)[C@H]2O)[C@](C)(O)C[C@@H](C)C(=O)[C@H](C)[C@@H](O)[C@]1(C)O [ERYTHROMYCIN] | – | 8 (≈ 10.9 µM) | 256 (≈ 349 µM) | > 1020 | 1020 (≈ 1400 µM) | 1020 (≈ 1400 µM) | 4 (≈ 5.45 µM) | 64 | –
4 | CN(C)[C@@H]1C(O)=C(C(N)=O)C(=O)[C@@]2(O)C(O)=C3C(=O)c4c(O)cccc4[C@@](C)(O)[C@H]3C[C@@H]12 [TETRACYCLINE] | – | – | – | – | – | – | – | – | MIC [11]: 64 µg/mL (≈ 144 µM); MIC [12]: 8 µg/mL (≈ 18 µM); MIC [13]: 512 µg/mL (≈ 1150 µM); MIC [14]: 2 µg/mL (≈ 4.5 µM); MIC [15]: 16 µg/mL (≈ 36 µM); MIC [16]: 4 µg/mL (≈ 9 µM); MIC [17]: 64 µg/mL (≈ 144 µM); MIC [18]: 4 µg/mL (≈ 9 µM); MIC [19]: 32 µg/mL (≈ 72 µM); MIC [20]: 8 µg/mL (≈ 18 µM); MIC [21]: 256 µg/mL (≈ 576 µM); MIC [22]: 128 µg/mL (≈ 288 µM)
